Assay results from ChEMBL document CHEMBL3994630, “Antiparasitic lethality of sulfonamidebenzamides in kinetoplastids” (Bioorg Med Chem Lett, 2017).
Active and inactive are the calls of the source. No cut-off for these calls is given here.

Tests used:
[1] = tested on: Trypanosoma brucei; test: Antitrypanosomal activity against Trypanosoma brucei 90-13 bloodstream forms after 72 hrs by CellTiter-Blue assay; format: functional; conditions: 90-13, 72 h
[2] = tested on: IMR-90; test: Cytotoxicity against human IMR90 cells after 44 to 46 hrs by CellTiter-Blue assay; format: cell-based
[3] = tested on: Leishmania amazonensis; test: Anti-parasitic activity against Leishmania amazonensis promastigotes after 44 hrs by CellTiter-Blue assay; format: functional
[4] = Selectivity index, ratio of EC50 for cytotoxicity against human IMR90 cells to EC50 for antitrypanosomal activity against Trypanosoma brucei 90-13 bloodstream forms; format: toxicity, cell-based; conditions: read-out: Ratio EC50
[5] = Selectivity index, ratio of EC50 for cytotoxicity against human IMR90 cells to EC50 for anti-parasitic activity against Leishmania amazonensis promastigotes; format: toxicity, cell-based; conditions: read-out: Ratio EC50
[6] = tested on: Trypanosoma brucei; test: Induction of apoptosis in Trypanosoma brucei 90-13 bloodstream forms assessed as dead cells at EC50 after 6 to 24 hrs by Annexin-V-FITC/propidium iodide staining based flow cytometry (reference value: 49.7%); format: functional
[7] = tested on: Trypanosoma brucei; test: Induction of apoptosis in Trypanosoma brucei 90-13 bloodstream forms at EC50 after 6 hrs by Annexin-V-FITC/propidium iodide staining based flow cytometry (reference value: 47.3%); format: functional
[8] = tested on: Trypanosoma brucei; test: Induction of apoptosis in Trypanosoma brucei 29-13 procyclic forms after 6 to 24 hrs by Annexin-V-FITC/propidium iodide staining based flow cytometry (reference value: 658 RFU); format: functional
[9] = tested on: Trypanosoma brucei; test: Induction of apoptosis in Trypanosoma brucei 90-13 bloodstream forms after 6 to 24 hrs by Annexin-V-FITC/propidium iodide staining based flow cytometry; format: functional

Compound	EC50 [1] [µM]	EC50 [2] [µM]	EC50 [3] [µM]	selectivity ratio [4]	selectivity ratio [5]	Activity [6] [%]	Activity [7] [%]	Activity [8] [RFU]	Activity [9]
O=C(Nc1ccc(S(=O)(=O)N2CCOCC2)cc1)c1ccc([N+](=O)[O-])cc1	> 10	> 25	> 25	–	–	–	–	–	–
O=C(Nc1ccc(S(=O)(=O)N2CCC(Cl)CC2)cc1)c1ccc([N+](=O)[O-])o1	0.08	> 25	7.9	> 313	> 3	–	–	–	–
N=C1CCN(S(=O)(=O)c2ccc(NC(=O)c3ccc([N+](=O)[O-])o3)cc2)CC1	0.73	> 25	10.5	> 34	> 2	–	–	–	–
CC1(C)CCN(S(=O)(=O)c2cccc(NC(=O)c3cccc([N+](=O)[O-])c3)c2)CC1	10.4	> 25	3	> 2	> 8	–	–	–	–
O=C(Nc1ccc(S(=O)(=O)N2CCOCC2)cc1)c1cccs1	> 10	> 25	> 25	–	–	–	–	–	–
CC1(C)CCN(S(=O)(=O)c2ccc(NC(=O)c3ccc(C(F)(F)F)o3)cc2)CC1	7.55	> 25	10.7	> 3	> 2	–	–	–	–
O=C(Nc1ccc(S(=O)(=O)C2=CCOC=C2)cc1)c1ccc([N+](=O)[O-])o1	0.53	> 25	0.3	> 47	> 83	–	–	–	–
O=C(Nc1ccc(S(=O)(=O)N2CCC3(CCCCC3)CC2)cc1)c1ccc([N+](=O)[O-])o1	0.03	> 25	1.5	> 833	> 17	–	–	–	–
CC1(C)CCN(S(=O)(=O)c2cccc(NC(=O)c3ccc([N+](=O)[O-])s3)c2)CC1	0.045	> 25	1.3	> 556	> 19	–	–	–	–
O=C(Nc1ccc(S(=O)(=O)N2CCOCC2)cc1)c1ccco1	> 10	> 25	> 25	–	–	–	–	–	–
CC1CCN(S(=O)(=O)c2ccc(NC(=O)c3ccc([N+](=O)[O-])o3)cc2)CC1	0.12	> 25	7.7	> 208	> 3	–	–	–	–
O=C(Nc1ccc(S(=O)(=O)c2ccccc2)cc1)c1ccc([N+](=O)[O-])o1	0.11	> 25	4.3	> 227	> 6	–	–	–	–
CC1(C)CCN(S(=O)(=O)c2cccc(NC(=O)c3ccco3)c2)CC1	5.11	> 25	1.2	> 5	> 21	–	–	–	–
O=C(Nc1ccc(S(=O)(=O)N2CCC(F)CC2)cc1)c1ccc([N+](=O)[O-])o1	0.42	> 25	7.4	> 60	> 3	–	–	–	–
CC1(C)CCN(S(=O)(=O)c2ccc(NC(=O)c3ccc([N+](=O)[O-])o3)cc2)CC1	0.09	> 25	0.28	> 278	> 89	–	–	–	–
O=C(Nc1cccc(S(=O)(=O)N2CCOCC2)c1)c1ccc([N+](=O)[O-])o1	1.47	> 25	0.9	> 17	> 28	–	–	–	–
CC1(C)CCN(S(=O)(=O)c2ccc(NC(=O)c3ccc([N+](=O)[O-])s3)cc2)CC1	0.01	> 25	0.1	> 2500	> 250	–	–	–	–
O=C(Nc1ccc(S(=O)(=O)N2CCOCC2)cc1)c1ccccc1	> 10	> 25	> 25	–	–	–	–	–	–
O=C(Nc1ccc(S(=O)(=O)N2CCCCC2)cc1)c1ccc([N+](=O)[O-])o1	0.22	> 25	13.7	> 114	> 2	–	–	–	–
CC1CS(=O)(=O)CCN1/N=C/c1ccc([N+](=O)[O-])o1 (configuration not stated) [NIFURTIMOX]	7.5	> 25	0.8	–	–	–	–	–	–
O=C(Nc1ccc(S(=O)(=O)N2CCOCC2)cc1)c1ccc([N+](=O)[O-])s1	0.06	> 25	1.3	> 417	> 19	–	–	–	–
Cc1ccc(C(=O)Nc2ccc(S(=O)(=O)N3CCOCC3)cc2)o1	> 10	> 25	> 25	–	–	–	–	–	–
O=C(Nc1ccc(S(=O)(=O)N2CCOCC2)cc1)c1ccc([N+](=O)[O-])o1	0.46	> 25	3	> 54	> 8	–	–	–	–
CC(C)(C)C1CCN(S(=O)(=O)c2ccc(NC(=O)c3ccc([N+](=O)[O-])o3)cc2)CC1	0.03	> 25	1.4	> 833	> 18	48.2	82	–	–
O=C(Nc1ccc(S(=O)(=O)N2CCC3(CCCCC3)CC2)cc1)c1ccc([N+](=O)[O-])s1	0.02	> 25	0.1	> 1250	> 250	–	–	–	–
CC1(C)CCN(S(=O)(=O)c2ccc(NC(=O)c3cccc([N+](=O)[O-])c3)cc2)CC1	6.6	> 25	13.3	> 4	> 2	–	–	–	–
CC(C)(C)C1CCN(S(=O)(=O)c2ccc(NC(=O)c3ccc([N+](=O)[O-])s3)cc2)CC1	0.03	> 25	0.1	> 833	> 250	–	–	–	–
O=C(Nc1ccc(S(=O)(=O)C2CCCCC2)cc1)c1ccc([N+](=O)[O-])o1	0.49	> 25	1.6	> 51	> 16	–	–	–	–
O=C(Nc1ccc(S(=O)(=O)N2CCC(O)CC2)cc1)c1ccc([N+](=O)[O-])o1	0.31	> 25	4.4	> 81	> 6	–	–	849	Active
CC1(C)CCN(S(=O)(=O)c2cccc(NC(=O)c3ccc([N+](=O)[O-])o3)c2)CC1	0.32	> 25	0.1	> 78	> 250	–	–	–	–
